{
  "source": "patent US12552797B2",
  "about": "“Process for making (3-[cyclopropylethoxy(difluoro)methyl]-6-6[5-fluoro-6-(2,2,2-trifluoroethoxy-3-pyridyl]- [1,2,4]triazolo[4,3-a]pyrazine” (Praxis Precision Medicines, Inc., priority 2019, dated 2026)",
  "key": {"[1]": {"experiment": "Stability of suspension formulations in 0.5% MC 400 cP/0.2% Tween 80 (HPLC, PSD)", "assay_type": "physicochemical", "method": "For stability and purity testing of Compound 1 a high-performance liquid chromatography (HPLC) method was developed. The HPLC method used for chemical stability and purity testing was as follows:\nTo prepare suspension formulations of Compound 1, about 0.5 mg, 5 mg and 10 mg of Compound 1 were weighted into separate vials and 1 mL 0.5% MC 400 cP/0.2% Tween 80 was added to each vial. The materials were mixed together by Vortex and stirred at room temperature overnight (24 hrs). The stability of the suspension formulations was measured by quantifying the purity of Compound 1 using high pressure liquid chromatography (HPLC). […]\nTo prepare a suspension formulation comprising jet-milled Compound 1, 15 mg of jet-milled Compound 1 was weighed into a glass vial and then 10 mL of vehicle (0.5% MC 400 cP/0.2% Tween 80) was added to disperse it to reach Compound 1 concentration of 1.5 mg/mL. The suspension was thoroughly dispersed by homogenization for ˜30 seconds. The stability of the suspension was evaluated by HPLC and particle size distribution (PSD), and the results are summarized in Table 7. Based on HPLC and PSD, the suspension formulation comprising jet-milled Compound 1 was stable at ambient condition for 28 days."}, "[2]": {"experiment": "Phase 1 single/multiple ascending dose and food effect trial in healthy volunteers: safety and tolerability", "assay_type": "in vivo, human", "source_text": "This is a three-part clinical trial to evaluate the safety, tolerability, PK, and food effect of Compound 1 in healthy volunteers aged 18 to 55 years inclusive. The clinical trial is comprised of the following 3 parts: • Part A is randomized, double-blinded and placebo-controlled. Part A is designed to investigate the safety and PK of single ascending doses of Compound 1. • Part B is randomized, double-blinded and placebo-controlled. […]\nDosing in each dose level cohort starts with 2 sentinel participants with one of the 2 participants randomized to receive Compound 1 and the other participant randomized to receive placebo. The safety and tolerability of each sentinel participant are monitored until Day 6 and reviewed prior to dosing the remainder of participants in each cohort. […]\n(§1) A dose level is evaluated in Part B if determined to be safe and tolerable in Part A. It is anticipated that 3 dose levels are evaluated in Part B in a total of 3 cohorts (Cohorts B1-B3). […]\nas §1"}, "[3]": {"conditions": "jet milled, 0.5% MC 400 cP/0.2% Tween 80, target 1.5 mg/mL, 1 day"}, "[4]": {"conditions": "jet milled, 0.5% MC 400 cP/0.2% Tween 80, target 1.5 mg/mL, 6 days"}, "[5]": {"conditions": "jet-milled, 0.5% MC 400 cP/0.2% Tween 80, target 1.5 mg/mL, RT, Initial"}, "[6]": {"conditions": "jet-milled, 0.5% MC 400 cP/0.2% Tween 80, target 1.5 mg/mL, RT, day 1"}, "[7]": {"conditions": "jet-milled, 0.5% MC 400 cP/0.2% Tween 80, target 1.5 mg/mL, RT, day 2"}, "[8]": {"conditions": "jet-milled, 0.5% MC 400 cP/0.2% Tween 80, target 1.5 mg/mL, RT, day 3"}, "[9]": {"conditions": "jet-milled, 0.5% MC 400 cP/0.2% Tween 80, target 1.5 mg/mL, RT, day 6"}, "[10]": {"conditions": "jet-milled, 0.5% MC 400 cP/0.2% Tween 80, target 1.5 mg/mL, RT, day 7"}, "[11]": {"conditions": "jet-milled, 0.5% MC 400 cP/0.2% Tween 80, target 1.5 mg/mL, RT, day 14"}, "[12]": {"conditions": "jet-milled, 0.5% MC 400 cP/0.2% Tween 80, target 1.5 mg/mL, RT, day 21"}, "[13]": {"conditions": "jet-milled, 0.5% MC 400 cP/0.2% Tween 80, target 1.5 mg/mL, RT, day 28"}, "[14]": {"conditions": "un-milled, 0.5% MC 400 cP/0.2% Tween 80, target 0.5 mg/mL, 1 hr"}, "[15]": {"conditions": "un-milled, 0.5% MC 400 cP/0.2% Tween 80, target 0.5 mg/mL, 4 hrs"}, "[16]": {"conditions": "un-milled, 0.5% MC 400 cP/0.2% Tween 80, target 0.5 mg/mL, 7 days"}, "[17]": {"conditions": "un-milled, 0.5% MC 400 cP/0.2% Tween 80, target 5 mg/mL, 4 hrs"}, "[18]": {"conditions": "un-milled, 0.5% MC 400 cP/0.2% Tween 80, target 5 mg/mL, 7 days"}, "[19]": {"conditions": "un-milled, 0.5% MC 400 cP/0.2% Tween 80, target 10 mg/mL, 1 hr"}, "[20]": {"conditions": "un-milled, 0.5% MC 400 cP/0.2% Tween 80, target 10 mg/mL, 4 hrs"}, "[21]": {"conditions": "un-milled, 0.5% MC 400 cP/0.2% Tween 80, target 10 mg/mL, 7 days"}},
  "data": [
    {"smiles": "CCOC(F)(F)c1nnc2cnc(-c3cnc(OCC(F)(F)F)c(F)c3)cn12", "note": "[Compound 1, 3-(ethoxydifluoromethyl)-6-(5-fluoro-6-(2,2,2-trifluoroethoxy)pyridin-3-yl)-[1,2,4]triazolo[4,3-a]pyrazine]", "values": [
      {"measurement": "appearance of suspensions", "setting": "[1]; 0.5, 5 and 10 mg/mL in 0.5% MC 400 cP/0.2% Tween 80, room temperature", "value": "homogenous suspensions"},
      {"measurement": "Concentration", "setting": "[1]; [3]", "value": 1440, "unit": "µg/mL"},
      {"measurement": "Purity", "setting": "[1]; [3]", "value": 99.4, "unit": "%"},
      {"measurement": "Concentration", "setting": "[1]; [4]", "value": 1430, "unit": "µg/mL"},
      {"measurement": "Purity", "setting": "[1]; [4]", "value": 99.5, "unit": "%"},
      {"measurement": "Appearance", "setting": "[1]; [5]", "value": "Homogeneous"},
      {"measurement": "Conc.", "setting": "[1]; [5]", "value": 1610, "unit": "µg/mL"},
      {"measurement": "Purity", "setting": "[1]; [5]", "value": 99.43, "unit": "%"},
      {"measurement": "Appearance", "setting": "[1]; [6]", "value": "Homogeneous"},
      {"measurement": "Conc.", "setting": "[1]; [6]", "value": 1440, "unit": "µg/mL"},
      {"measurement": "Purity", "setting": "[1]; [6]", "value": 99.44, "unit": "%"},
      {"measurement": "Appearance", "setting": "[1]; [7]", "value": "Homogeneous"},
      {"measurement": "Conc.", "setting": "[1]; [7]", "value": 1380, "unit": "µg/mL"},
      {"measurement": "Purity", "setting": "[1]; [7]", "value": 99.52, "unit": "%"},
      {"measurement": "Appearance", "setting": "[1]; [8]", "value": "Homogeneous"},
      {"measurement": "Conc.", "setting": "[1]; [8]", "value": 1580, "unit": "µg/mL"},
      {"measurement": "Purity", "setting": "[1]; [8]", "value": 99.49, "unit": "%"},
      {"measurement": "Appearance", "setting": "[1]; [9]", "value": "Homogeneous"},
      {"measurement": "Conc.", "setting": "[1]; [9]", "value": 1430, "unit": "µg/mL"},
      {"measurement": "Purity", "setting": "[1]; [9]", "value": 99.51, "unit": "%"},
      {"measurement": "Appearance", "setting": "[1]; [10]", "value": "Homogeneous"},
      {"measurement": "Conc.", "setting": "[1]; [10]", "value": 1610, "unit": "µg/mL"},
      {"measurement": "Purity", "setting": "[1]; [10]", "value": 99.55, "unit": "%"},
      {"measurement": "Appearance", "setting": "[1]; [11]", "value": "Homogeneous"},
      {"measurement": "Conc.", "setting": "[1]; [11]", "value": 1610, "unit": "µg/mL"},
      {"measurement": "Purity", "setting": "[1]; [11]", "value": 99.36, "unit": "%"},
      {"measurement": "Appearance", "setting": "[1]; [12]", "value": "Homogeneous"},
      {"measurement": "Conc.", "setting": "[1]; [12]", "value": 1560, "unit": "µg/mL"},
      {"measurement": "PSD (D90)", "setting": "[1]; [12]", "value": 6.97, "unit": "um"},
      {"measurement": "Purity", "setting": "[1]; [12]", "value": 99.58, "unit": "%"},
      {"measurement": "Appearance", "setting": "[1]; [13]", "value": "Homogeneous"},
      {"measurement": "Conc.", "setting": "[1]; [13]", "value": 1640, "unit": "µg/mL"},
      {"measurement": "PSD (D90)", "setting": "[1]; [13]", "value": 6.80, "unit": "um"},
      {"measurement": "Purity", "setting": "[1]; [13]", "value": 98.96, "unit": "%"},
      {"measurement": "stable at ambient condition (HPLC and PSD)", "setting": "[1]; suspension of jet-milled Compound 1, 1.5 mg/mL, 0.5% MC 400 cP/0.2% Tween 80", "value": 28, "unit": "days"},
      {"measurement": "Concentration", "setting": "[1]; [14]", "value": 580, "unit": "µg/mL"},
      {"measurement": "Purity", "setting": "[1]; [14]", "value": 97.46, "unit": "%"},
      {"measurement": "Concentration", "setting": "[1]; [15]", "value": 450, "unit": "µg/mL"},
      {"measurement": "Purity", "setting": "[1]; [15]", "value": 96.65, "unit": "%"},
      {"measurement": "Concentration", "setting": "[1]; [16]", "value": 490, "unit": "µg/mL"},
      {"measurement": "Purity", "setting": "[1]; [16]", "value": 97.85, "unit": "%"},
      {"measurement": "Purity", "setting": "[1]; un-milled, 0.5% MC 400 cP/0.2% Tween 80, target 5 mg/mL, 1 hr", "value": 97.60, "unit": "%"},
      {"measurement": "Concentration", "setting": "[1]; [17]", "value": 4720, "unit": "µg/mL"},
      {"measurement": "Purity", "setting": "[1]; [17]", "value": 97.84, "unit": "%"},
      {"measurement": "Concentration", "setting": "[1]; [18]", "value": 5060, "unit": "µg/mL"},
      {"measurement": "Purity", "setting": "[1]; [18]", "value": 96.95, "unit": "%"},
      {"measurement": "Concentration", "setting": "[1]; [19]", "value": 9690, "unit": "µg/mL"},
      {"measurement": "Purity", "setting": "[1]; [19]", "value": 96.86, "unit": "%"},
      {"measurement": "Concentration", "setting": "[1]; [20]", "value": 9790, "unit": "µg/mL"},
      {"measurement": "Purity", "setting": "[1]; [20]", "value": 97.12, "unit": "%"},
      {"measurement": "Concentration", "setting": "[1]; [21]", "value": 9720, "unit": "µg/mL"},
      {"measurement": "Purity", "setting": "[1]; [21]", "value": 96.71, "unit": "%"},
      {"measurement": "tolerability", "setting": "[2]; Part A single ascending doses, first four of six planned cohorts, preliminary analysis", "value": "well tolerated"},
      {"measurement": "Serious Adverse Events, severe Adverse Events, or Adverse Events leading to study withdrawal or discontinuation", "setting": "[2]; Part A, first three cohorts tested", "value": "no reported"}
    ]}
  ]
}
